Results published in paper PMC4302056 (Bioorganic & medicinal chemistry, 2014).
≈ marks a conversion by molar mass, not a printed value. Entries after “also recorded” stand apart in the source; their conditions may differ.

Assays:
[1] = test system: Histoplasma capsulatum; experiment: microbe, parasite or virus in culture; assay type: cell-based; details: for anti-Histoplasma activity (in words): qualitative statement; for MIC50: Histoplasma capsulatum, 96 h, read-out: Histoplasma capsulatum MIC50
[2] = test system: Cryptococcus neoformans; assay type: cell-based
[3] = test system: DU-145 human prostate cancer cells; details: read-out: IC50 of in vitro proliferation inhibition; cited from earlier work
[4] = test system: Histoplasma yeast; details: inhibitory vs microbicidal; cited from earlier work
[5] = test system: Candida albicans; details: cited from earlier work
[6] = test system: Aspergillus fumigatus; details: cited from earlier work
[7] = test system: Blastomyces dermatitidis; details: cited from earlier work

With NC(=O)c1cc(-c2ccccc2)sc1NC(=O)c1ccc2c(c1)OCCO2 [4H2, reference compound] the “anti-Histoplasma activity (in words)” value [1] was “abolished or reduced activity”.
For CC(C)(C)OC(=O)Nc1ncc(C(O)c2ccccc2)s1 (stereo not shown) [Compound 2a, tert-Butyl{5-[hydroxy(phenyl)methyl]thiazol-2-yl}carbamate], the MIC50 [1] was over 10 µM and the “anti-Histoplasma activity (in words)” value [1] was “lack of activity”.
With Nc1ncc(Cc2ccccc2)s1 [Compound 3a, 5-Benzyl-2-thiazolamine] the MIC50 [1] was over 10 µM.
For O=C(Nc1ncc(Cc2ccccc2)s1)C(F)(F)F [Compound 4a, N-(5-Benzylthiazol-2-yl)trifluoroacetamide], the MIC50 [1] was over 10 µM.
With CC(C)C(=O)Nc1ncc(Cc2ccccc2)s1 [Compound 4b, N-(5-Benzylthiazol-2-yl)isobutyramide] the MIC50 [1] was 6.7 µM (≈ 1.74 µg/mL).
For O=C(Nc1ncc(Cc2ccccc2)s1)C1CCCC1 [Compound 4c, N-(5-Benzylthiazol-2-yl)cyclopentanecarboxamide], the MIC50 [1] was 1.6 ± 0.1 µM (≈ 0.458 µg/mL) and the “anti-Cryptococcus activity (in words)” value [2] was “anti-Cryptococcus activity”.
In the case of O=C(Nc1ncc(Cc2ccccc2)s1)C1CCCCC1 [Compound 4d, N-(5-Benzylthiazol-2-yl)cyclohexanecarboxamide], the MIC50 [1] is reported as 1.6 ± 0.1 µM (≈ 0.481 µg/mL) and the “anti-Cryptococcus activity (in words)” value [2] is reported as “anti-Cryptococcus activity”.
In the case of O=C(CC1CCCCC1)Nc1ncc(Cc2ccccc2)s1 [Compound 4e, N-(5-Benzylthiazol-2-yl)-2-cyclohexylacetamide], the “anti-Cryptococcus activity (in words)” value [2] is reported as “lost activity”.
In the case of O=C(CCC1CCCCC1)Nc1ncc(Cc2ccccc2)s1 [Compound 4f, N-(5-Benzylthiazol-2-yl)-3-cyclohexylpropanamide], the “anti-Cryptococcus activity (in words)” value [2] is reported as “lost activity”.
With O=C(/C=C/C1CCCCC1)Nc1ncc(Cc2ccccc2)s1 [Compound 4g, (E)-N-(5-Benzylthiazol-2-yl)-3-cyclohexylacrylamide] the MIC50 [1] was over 10 µM.
In the case of O=C(Nc1ncc(Cc2ccccc2)s1)c1ccccc1 [Compound 4h, N-(5-Benzylthiazol-2-yl)benzamide], the MIC50 [1] is reported as over 10 µM.
Work on O=C(Nc1ncc(Cc2ccccc2)s1)C1CCSCC1 [Compound 5a, N-(5-Benzylthiazol-2-yl)tetrahydro-2H-thiopyran-4-carboxamide] yielded an MIC50 [1] of 4.8 µM (≈ 1.53 µg/mL).
O=C(Nc1ncc(Cc2ccccc2)s1)C1CCOCC1 [Compound 5b, N-(5-Benzylthiazol-2-yl)tetrahydro-2H-pyran-4-carboxamide] gave an MIC50 [1] of over 10 µM.
In the case of O=C(Nc1ncc(Cc2ccccc2)s1)N1CCOCC1 [Compound 5f, N-(5-Benzylthiazol-2-yl)morpholine-4-carboxamide], the MIC50 [1] is reported as over 10 µM.
Work on O=C(Nc1ncc(Cc2ccccc2)s1)c1cnc(-c2cccs2)s1 [Compound 5h, N-(5-Benzylthiazol-2-yl)-2-(thiophen-2-yl)thiazole-5-carboxamide] yielded an MIC50 [1] of over 10 µM.
In the case of COc1ccc(Cc2cnc(NC(=O)/C=C/c3ccco3)s2)cc1 [Compound 6d, 3-(2-Furyl)-N-[5-(4-methoxybenzyl)-1,3-thiazol-2-yl]acrylamide], the “anti-Histoplasma activity (in words)” value [1] is given as “did not have any antifungal activity” and the IC50 [3] is given as 15 nM.
In the case of O=C(CCC1CCCCC1)Nc1ncc(Cc2cccc(C(F)(F)F)c2)s1 [Compound 7a, N-{5-[3-(Trifluoromethyl)benzyl]thiazol-2-yl}-3-cyclohexanepropanamide], the “anti-Histoplasma activity (in words)” value [1] is reported as “lack of activity”.
In the case of CC(C)C(=O)Nc1ncc(Cc2cccc3ccccc23)s1 [Compound 9b, N-[5-(1-Naphthalenylmethyl)thiazol-2-yl]isobutyramide], the “anti-Cryptococcus activity (in words)” value [2] is reported as “lost activity”.
With O=C(Nc1ncc(Cc2cccc3ccccc23)s1)C1CCCC1 [Compound 9c, N-[5-(1-Naphthalenylmethyl)thiazol-2-yl]cyclopentanecarboxamide] the “anti-Cryptococcus activity (in words)” value [2] was “anti-Cryptococcus activity”.
In the case of O=C(Nc1ncc(Cc2cccc3ccccc23)s1)C1CCCCC1 [Compound 9d, N-[5-(1-Naphthalenylmethyl)thiazol-2-yl]cyclohexanecarboxamide], the “anti-Cryptococcus activity (in words)” value [2] is given as “anti-Cryptococcus activity”, the “type of antifungal action” value [4] is given as “inhibitory rather than microbicidal action” and the “inhibition of in vitro growth” value [5] is given as “does not inhibit”. The “inhibition of in vitro growth” value [6] was “does not inhibit” and the “inhibition of in vitro growth” value [7] was “does not inhibit”.
For O=C(CC1CCCCC1)Nc1ncc(Cc2cccc3ccccc23)s1 [Compound 9e, N-[5-(1-Naphthalenylmethyl)thiazol-2-yl]-2-cyclohexaneacetamide], the “anti-Cryptococcus activity (in words)” value [2] was “lost activity”.
In the case of O=C(CCC1CCCCC1)Nc1ncc(Cc2cccc3ccccc23)s1 [Compound 9f, N-[5-(1-Naphthalenylmethyl)thiazol-2-yl]-3-cyclohexanepropanamide], the “anti-Cryptococcus activity (in words)” value [2] is reported as “lost activity”.
With O=C(Nc1ncc(CCc2ccccc2)s1)C1CCCC1 [Compound 11a, N-(5-Phenethylthiazol-2-yl)cyclopentanecarboxamide] the MIC50 [1] was 0.9 ± 0.1 µM (≈ 0.27 µg/mL).
Molecule O=C(CCC1CCCCC1)Nc1ncc(CCc2ccccc2)s1 [Compound 11b, N-(5-Phenethylthiazol-2-yl)-3-cyclohexanepropanamide] has an MIC50 [1] of 0.7 ± 0.1 µM (≈ 0.24 µg/mL).
O=C(Nc1ncc(-c2ccccc2)s1)C1CCCC1 [Compound 12a, N-(5-Phenylthiazol-2-yl)cyclopentanecarboxamide] showed an MIC50 [1] of over 10 µM.
In the case of O=C(Nc1ncc(-c2ccccc2)s1)C1CCCCC1 [Compound 12b, N-(5-Phenylthiazol-2-yl)cyclohexanecarboxamide], the MIC50 [1] is reported as over 10 µM.
For CC(C)C(=O)Nc1ncc(CC2CCCCC2)s1 [Compound 13a, N-[5-(Cyclohexylmethyl)thiazol-2-yl]isobutyramide], the MIC50 [1] was over 10 µM and the “anti-Histoplasma activity (in words)” value [1] was “no activity”.
For O=C(CC1CCCCC1)Nc1ncc(CC2CCCCC2)s1 [Compound 13c, N-[5-(Cyclohexylmethyl)thiazol-2-yl]-2-cyclohexaneacetamide], the MIC50 [1] was over 10 µM and the “anti-Histoplasma activity (in words)” value [1] was “no activity; also recorded: abolished activity”.
For O=C(Nc1ncc(CC2CCCCC2)s1)c1ccccc1 [Compound 13e, N-[5-(Cyclohexylmethyl)thiazol-2-yl]benzamide], the MIC50 [1] was 4.6 µM (≈ 1.38 µg/mL).
For O=C(Nc1ncc(CC2CCCCC2)s1)C12CC3CC(CC(C3)C1)C2 [Compound 13f, N-[5-(Cyclohexylmethyl)thiazol-2-yl]adamantane-1-carboxamide], the MIC50 [1] was over 10 µM and the “anti-Histoplasma activity (in words)” value [1] was “no activity”.
In the case of O=C(CCC1CCCCC1)Nc1nnc(Cc2ccccc2)s1 [Compound 14a, N-(5-Benzyl-1,3,4-thiadiazol-2-yl)-3-cyclohexylpropanamide], the MIC50 [1] is reported as over 10 µM and the “anti-Histoplasma activity (in words)” value [1] is reported as “abolished or reduced activity”.
With CN(C(=O)CCC1CCCCC1)c1ncc(Cc2ccccc2)s1 [Compound 14b, N-(5-Benzylthiazol-2-yl)-3-cyclohexyl-N-methylpropanamide] the MIC50 [1] was over 10 µM and the “anti-Histoplasma activity (in words)” value [1] was “abolished or reduced activity”.
In the case of Cc1nc(NC(=O)CCC2CCCCC2)sc1Cc1ccccc1 [Compound 14c, N-(5-Benzyl-4-methylthiazol-2-yl)-3-cyclohexylpropanamide], the MIC50 [1] is reported as over 10 µM and the “anti-Histoplasma activity (in words)” value [1] is reported as “reduced anti-Histoplasma activity or were inactive”.
With O=C(Nc1nc(-c2ccccc2)cs1)C1CCCC1 [Compound 15a, N-(4-Phenylthiazol-2-yl)cyclopentanecarboxamide] the “anti-Histoplasma activity (in words)” value [1] was “no activity”.
With O=C(CCC1CCCCC1)Nc1nc(-c2ccccc2)cs1 [Compound 15b, N-(4-Phenylthiazol-2-yl)-3-cyclohexanepropanamide] the “anti-Histoplasma activity (in words)” value [1] was “no activity”.
With O=C(Nc1nc(C23CC4CC(CC(C4)C2)C3)cs1)C1CCCC1 [Compound 15d, N-[4-(Adamantan-1-yl)thiazol-2-yl]cyclopentanecarboxamide] the MIC50 [1] was 7.4 µM (≈ 2.45 µg/mL).
In the case of O=C(Nc1nc(C23CC4CC(CC(C4)C2)C3)cs1)C1CCCCC1 [Compound 15e, N-[4-(Adamantan-1-yl)thiazol-2-yl]cyclohexanecarboxamide], the MIC50 [1] is reported as 2.5 ± 0.1 µM (≈ 0.861 µg/mL).
For O=C(CC1CCCCC1)Nc1nc(C23CC4CC(CC(C4)C2)C3)cs1 [Compound 15f, N-[4-(Adamantan-1-yl)thiazol-2-yl]-2-cyclohexylacetamide], the “anti-Histoplasma activity (in words)” value [1] was “abolished activity”.
